# Assay results taken from ChEMBL document CHEMBL1201862, “PubChem BioAssay data set” (2004).
# Calls of active or inactive are those of the source.
# Columns and labels:
# Cytochrome P450 1A2 = target: T1, Cytochrome P450 1A2 (Homo sapiens, UniProt P05177);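 note: PubChem cytochrome P450 panel assay, CYP1A2 panel member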
# T1 sequence (P05177 whole entry): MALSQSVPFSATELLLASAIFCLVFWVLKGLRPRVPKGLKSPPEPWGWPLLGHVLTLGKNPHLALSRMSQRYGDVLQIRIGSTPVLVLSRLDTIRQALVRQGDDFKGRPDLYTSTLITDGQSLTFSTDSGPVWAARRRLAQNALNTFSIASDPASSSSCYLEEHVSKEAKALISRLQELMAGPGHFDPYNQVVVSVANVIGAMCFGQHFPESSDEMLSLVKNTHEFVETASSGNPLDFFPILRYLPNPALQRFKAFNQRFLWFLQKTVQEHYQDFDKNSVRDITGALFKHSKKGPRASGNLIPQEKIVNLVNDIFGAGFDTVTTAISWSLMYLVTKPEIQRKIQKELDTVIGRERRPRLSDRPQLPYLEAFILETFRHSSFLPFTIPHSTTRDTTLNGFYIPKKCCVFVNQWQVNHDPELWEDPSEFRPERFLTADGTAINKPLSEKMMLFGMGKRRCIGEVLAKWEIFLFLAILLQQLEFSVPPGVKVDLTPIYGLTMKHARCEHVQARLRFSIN
# Cytochrome P450 2C9 = Cytochrome P450 2C9 (Homo sapiens, UniProt P11712)
# Cytochrome P450 2C19 = Cytochrome P450 2C19 (Homo sapiens, UniProt P33261); experiment: Cytochrome panel assay with activity outcomes. Panel member name: p450-cyp2c19 Compounds with AC50 equal or less than 10 uM are considered active; format: functional
# [1] = cytotoxicity toward NIH3T3 fibroblasts, dose response, counter-screen, cell-based, ATP luminescence, mouse fibroblasts (AID 2010); format: functional;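 note: cells exposed to compound for about 90 hours before reading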
# Protein skinhead-1 = target: T2, Protein skinhead-1 (Caenorhabditis elegans, UniProt P34707); format: functional
# T2 sequence (P34707 whole entry): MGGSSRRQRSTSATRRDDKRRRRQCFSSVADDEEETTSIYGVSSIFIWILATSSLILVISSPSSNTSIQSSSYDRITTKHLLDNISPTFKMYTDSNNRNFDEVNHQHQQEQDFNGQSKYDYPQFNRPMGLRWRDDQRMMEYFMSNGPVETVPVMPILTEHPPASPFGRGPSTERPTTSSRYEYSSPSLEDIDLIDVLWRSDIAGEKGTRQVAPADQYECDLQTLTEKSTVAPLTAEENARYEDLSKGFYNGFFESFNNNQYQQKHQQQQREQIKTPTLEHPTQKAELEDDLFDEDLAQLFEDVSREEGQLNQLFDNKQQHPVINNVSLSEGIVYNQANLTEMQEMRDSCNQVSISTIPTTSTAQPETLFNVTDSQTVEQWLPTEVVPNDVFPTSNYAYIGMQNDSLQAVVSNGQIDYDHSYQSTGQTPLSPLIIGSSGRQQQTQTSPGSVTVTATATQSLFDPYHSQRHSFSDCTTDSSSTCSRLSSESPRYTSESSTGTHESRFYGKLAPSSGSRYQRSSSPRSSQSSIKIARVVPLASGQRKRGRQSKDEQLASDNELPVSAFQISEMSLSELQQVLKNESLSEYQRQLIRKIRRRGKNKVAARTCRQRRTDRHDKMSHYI
# [2] = inhibitors of intracellular T. cruzi replication, confirmation, NIH3T3 host cells, beta-gal luminescence (AID 2044); format: functional, cell-based;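 note: intracellular parasites grown in NIH/3T3 mouse fibroblasts as host cells; luminescent beta-galactosidase reporter signal from transgenic T. cruzi replicating inside host cells; inhibitors lower the luminescence signal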
# [3] = inhibitors of clade B AD8 Env fusion, dose response, cell-based, cherry-pick (AID 652062); format: functional;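 note: luciferase signal from cell-cell fusion driven by HIV-1 clade B AD8 Env; potency is for inhibitors of fusion seen as a drop in luminescence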
# [4] = growth suppression of PTEN-null colon cells, dose response, cell-based, HCT116 PTEN knockout (AID 1047); format: functional;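 note: HCT116 colon tumor cells with PTEN knocked out; cells exposed to compound for 60 hours before readout; potency for loss of cell viability measured by luminescence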
# [5] = growth suppression of beta-catenin-knockout colon cells, dose response, cell-based, HCT116, human colon tumor (AID 1045); format: functional;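 note: HCT116 colon tumor cells with beta catenin knocked out; cells exposed to compound for 60 hours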
# [6] = target: T3, Polyadenylate-binding protein 1 (Homo sapiens, UniProt P11940); experiment: PABP1 MLLE–PAM2 interaction inhibitors, dose response, miRNA deadenylation inhibitor project, biochemical, fluorescence polarization, Cy5-PAM2 peptide, secondary (AID 602260); format: functional; conditions: read-out: IC50_Mean
# [7] = target: T3, Polyadenylate-binding protein 1; experiment: PABP1 MLLE–PAM2 binding inhibitor potency, dose response, biochemical, fluorescence polarization, FITC-PAM2 peptide (AID 602259); format: functional; conditions: read-out: IC50_Mean
# Cytochrome P450 2D6 = Cytochrome P450 2D6 (Homo sapiens, UniProt P10635);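 note: CYP2D6 member of a cytochrome P450 panel assay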
# Cytochrome P450 3A4 = Cytochrome P450 3A4 (Homo sapiens, UniProt P08684);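 note: CYP3A4 tested as one member of a cytochrome P450 panel screen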
# cells = format: functional
# [8] = Luminescence Cell-Based Dose Confirmation HTS to Identify Inhibitors of Platelet Dense Granule Release. [Related pubchem assays: 1663 (Primary HTS), 1678 (Summary of Project)]; format: functional
# [9] = target: Luciferin 4-monooxygenase (Photinus pyralis, UniProt P08659); experiment: firefly luciferase enzyme inhibitors, dose response, biochemical, luminescence (AID 1891)
# H4 = experiment: Luminescence Cell-Based Dose Response HTS to Identify Activators of 5'UTR Stem-Loop Driven Prion Protein mRNA Translation in H4 Neuroglioblastoma Cells. [Related pubchem assays: 1829 (Project Summary), 1814 (Primary HTS)]; format: functional; conditions: Homo sapiens
# [10] = Luminescence Cell-Based Dose Response HTS to Identify Activators of Luciferase Translation or Activity in H4 […] Cells. [Related pubchem assays: 1829 (Project Summary), 1814 (Primary HTS)]; format: functional
# [11] = Luminescence Cell-Based Dose Confirmation HTS to Identify Activators of 5'UTR Stem-Loop Driven Alpha-Synuclein mRNA Translation in H4 Neuroglioblastoma Cells. [Related pubchem assays: 1829 (Project Summary), 1814 (Primary HTS)]; format: functional
# [12] = inhibitors of firefly luciferase expression or activity, dose response, H4 neuroglioma cells, luminescence (AID 1990); format: functional, cell-based
# [13] = Luminescence Cell-Based Dose Response HTS to Identify Inhibitors of 5'UTR Stem-Loop Driven Prion Protein mRNA Translation in H4 Neuroglioblastoma Cells. [Related pubchem assays: 1827 (Project Summary), 1813 (Primary HTS)]; format: functional
# [14] = inhibitors of SNCA 5'UTR-driven reporter translation, confirmation, H4 neuroglioma cells, luminescence (AID 1988); format: functional, cell-based
# [15] = target: T4, Heat shock factor protein 1 (Mus musculus, UniProt P38532); experiment: HSF1 potentiators in luciferase reporter cells, confirmation, cell-based, NIH3T3, luminescence, dose retest (AID 435004); format: functional;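 note: stress induced by proteasome inhibitor MG132 added 30 min after compound; luciferase reporter driven by HSF1 response element in NIH3T3 cells; actives raise luminescence as potentiators of the MG132 stress response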
# T4 sequence (P38532 whole entry): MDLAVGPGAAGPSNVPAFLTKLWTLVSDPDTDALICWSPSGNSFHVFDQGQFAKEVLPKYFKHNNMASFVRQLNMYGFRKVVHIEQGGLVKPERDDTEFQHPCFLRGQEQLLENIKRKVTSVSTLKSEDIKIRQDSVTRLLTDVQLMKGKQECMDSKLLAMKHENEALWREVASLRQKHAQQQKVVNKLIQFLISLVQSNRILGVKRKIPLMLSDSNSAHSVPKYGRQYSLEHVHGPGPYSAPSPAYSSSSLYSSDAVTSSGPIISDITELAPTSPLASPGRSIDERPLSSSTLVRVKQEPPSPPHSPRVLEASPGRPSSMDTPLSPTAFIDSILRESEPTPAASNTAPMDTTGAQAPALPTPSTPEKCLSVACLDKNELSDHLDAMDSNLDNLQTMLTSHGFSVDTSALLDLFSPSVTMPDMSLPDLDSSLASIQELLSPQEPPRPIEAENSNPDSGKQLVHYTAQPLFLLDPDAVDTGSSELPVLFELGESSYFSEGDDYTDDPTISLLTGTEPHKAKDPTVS
# Chain of Cytochrome P450 2C19 (P33261 whole entry): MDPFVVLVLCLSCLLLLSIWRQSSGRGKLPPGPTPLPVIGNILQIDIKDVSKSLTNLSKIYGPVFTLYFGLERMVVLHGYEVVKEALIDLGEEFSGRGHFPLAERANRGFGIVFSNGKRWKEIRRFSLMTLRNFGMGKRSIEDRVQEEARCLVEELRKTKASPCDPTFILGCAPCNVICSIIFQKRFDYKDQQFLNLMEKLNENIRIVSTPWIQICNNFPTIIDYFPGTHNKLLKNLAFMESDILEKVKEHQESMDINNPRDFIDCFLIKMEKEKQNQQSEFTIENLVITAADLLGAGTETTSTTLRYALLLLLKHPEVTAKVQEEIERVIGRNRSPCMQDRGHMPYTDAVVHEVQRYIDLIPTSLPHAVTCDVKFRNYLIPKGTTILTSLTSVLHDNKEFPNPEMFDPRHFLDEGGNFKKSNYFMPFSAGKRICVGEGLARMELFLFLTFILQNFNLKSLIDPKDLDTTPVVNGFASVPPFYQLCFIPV
# Chain of Cytochrome P450 2D6 (P10635 whole entry): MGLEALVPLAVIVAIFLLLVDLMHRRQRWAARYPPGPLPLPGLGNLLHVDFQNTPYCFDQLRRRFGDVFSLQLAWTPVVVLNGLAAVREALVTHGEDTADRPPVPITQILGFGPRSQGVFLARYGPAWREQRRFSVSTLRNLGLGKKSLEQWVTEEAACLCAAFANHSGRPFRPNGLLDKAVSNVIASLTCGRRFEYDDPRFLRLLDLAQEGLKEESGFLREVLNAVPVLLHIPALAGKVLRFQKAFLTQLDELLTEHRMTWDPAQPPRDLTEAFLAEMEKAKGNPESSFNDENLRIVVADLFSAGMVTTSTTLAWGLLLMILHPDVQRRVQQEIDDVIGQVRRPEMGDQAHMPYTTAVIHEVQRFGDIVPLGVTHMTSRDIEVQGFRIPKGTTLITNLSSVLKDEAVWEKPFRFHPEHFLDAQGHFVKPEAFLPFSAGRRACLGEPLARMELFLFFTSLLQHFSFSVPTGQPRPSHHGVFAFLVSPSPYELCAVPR
# Chain of Cytochrome P450 2C9 (P11712 whole entry): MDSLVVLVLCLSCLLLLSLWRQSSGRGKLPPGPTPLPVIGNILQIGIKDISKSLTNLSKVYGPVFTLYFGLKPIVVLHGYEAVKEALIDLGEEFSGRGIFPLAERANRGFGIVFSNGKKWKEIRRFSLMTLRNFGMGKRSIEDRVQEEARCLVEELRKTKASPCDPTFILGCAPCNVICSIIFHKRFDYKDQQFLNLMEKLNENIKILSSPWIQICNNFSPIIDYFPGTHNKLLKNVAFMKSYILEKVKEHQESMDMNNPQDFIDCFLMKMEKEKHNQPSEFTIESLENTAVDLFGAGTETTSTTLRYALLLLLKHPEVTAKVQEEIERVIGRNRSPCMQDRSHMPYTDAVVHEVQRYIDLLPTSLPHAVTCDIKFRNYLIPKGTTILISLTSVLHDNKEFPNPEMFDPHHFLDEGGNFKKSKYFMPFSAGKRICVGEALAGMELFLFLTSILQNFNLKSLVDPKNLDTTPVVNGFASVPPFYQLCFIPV
# Chain of Luciferin 4-monooxygenase (P08659 whole entry): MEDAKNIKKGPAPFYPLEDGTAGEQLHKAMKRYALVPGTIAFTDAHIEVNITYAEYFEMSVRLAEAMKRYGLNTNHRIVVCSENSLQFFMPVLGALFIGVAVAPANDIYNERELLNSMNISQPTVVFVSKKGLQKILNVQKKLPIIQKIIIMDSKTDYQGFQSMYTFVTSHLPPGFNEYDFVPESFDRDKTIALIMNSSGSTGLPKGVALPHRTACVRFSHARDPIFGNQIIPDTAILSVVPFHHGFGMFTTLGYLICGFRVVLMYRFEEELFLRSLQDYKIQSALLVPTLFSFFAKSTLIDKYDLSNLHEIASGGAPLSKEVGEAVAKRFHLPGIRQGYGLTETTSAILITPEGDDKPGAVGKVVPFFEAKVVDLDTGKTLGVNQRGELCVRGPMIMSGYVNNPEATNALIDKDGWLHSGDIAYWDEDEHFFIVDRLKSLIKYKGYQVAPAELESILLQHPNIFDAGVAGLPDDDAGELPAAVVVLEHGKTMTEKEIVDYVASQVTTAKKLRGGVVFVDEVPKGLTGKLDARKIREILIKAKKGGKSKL
# T3 sequence (P11940 whole entry): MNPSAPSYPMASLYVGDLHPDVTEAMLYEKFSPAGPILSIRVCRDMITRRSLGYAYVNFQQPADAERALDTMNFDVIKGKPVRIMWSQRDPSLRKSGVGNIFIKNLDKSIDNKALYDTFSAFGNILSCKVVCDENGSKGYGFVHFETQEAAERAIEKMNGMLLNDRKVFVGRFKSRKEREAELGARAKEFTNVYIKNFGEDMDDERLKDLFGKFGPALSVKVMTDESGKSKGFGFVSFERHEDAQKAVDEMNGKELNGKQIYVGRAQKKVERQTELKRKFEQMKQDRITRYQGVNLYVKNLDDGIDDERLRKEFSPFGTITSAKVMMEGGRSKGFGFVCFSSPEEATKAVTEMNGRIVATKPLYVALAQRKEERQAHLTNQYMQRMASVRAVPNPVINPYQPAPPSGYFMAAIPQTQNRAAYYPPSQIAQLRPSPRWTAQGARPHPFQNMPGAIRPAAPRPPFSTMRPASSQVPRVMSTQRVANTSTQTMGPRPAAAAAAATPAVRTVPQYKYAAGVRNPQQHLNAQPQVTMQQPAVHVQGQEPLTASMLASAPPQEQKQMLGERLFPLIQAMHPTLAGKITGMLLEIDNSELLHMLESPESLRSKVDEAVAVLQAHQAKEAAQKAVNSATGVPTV
# Chain of Cytochrome P450 3A4 (P08684 whole entry): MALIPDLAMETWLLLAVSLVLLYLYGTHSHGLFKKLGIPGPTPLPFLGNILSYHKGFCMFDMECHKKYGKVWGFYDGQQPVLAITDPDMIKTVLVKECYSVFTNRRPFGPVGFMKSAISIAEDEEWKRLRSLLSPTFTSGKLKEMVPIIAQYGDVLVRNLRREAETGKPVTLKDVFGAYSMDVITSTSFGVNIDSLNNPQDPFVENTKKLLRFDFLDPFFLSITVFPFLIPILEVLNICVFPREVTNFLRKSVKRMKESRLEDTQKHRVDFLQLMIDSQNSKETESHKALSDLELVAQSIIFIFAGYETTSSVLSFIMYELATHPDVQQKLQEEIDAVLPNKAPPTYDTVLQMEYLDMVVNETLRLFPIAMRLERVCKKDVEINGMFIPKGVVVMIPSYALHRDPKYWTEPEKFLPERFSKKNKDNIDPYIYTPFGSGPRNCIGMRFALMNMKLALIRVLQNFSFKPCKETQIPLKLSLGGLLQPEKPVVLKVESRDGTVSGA
structure (smiles),measurement,setting,value
CC1(C)CCC(C)(C)c2cc(C(=O)Nc3ccc(C(=O)O)cc3)ccc21,AC50,Cytochrome P450 1A2,31.6 µM (inconclusive)
same,AC50,Cytochrome P450 2C9,15.8 µM (inconclusive)
same,AC50,Cytochrome P450 2C19; read-out: AC50,31.6 µM (inconclusive)
COC(=O)[C@@]1(Cc2ccc(F)cc2)[C@H]2c3cc(C(=O)N(C)C)n(CCc4c[nH]c5ccc(OC)cc45)c3C[C@H]2CN1C(=O)c1ccccc1,AC50,Cytochrome P450 1A2,12.6 µM (inconclusive)
same,AC50,Cytochrome P450 2C19; read-out: AC50,39.8 µM (inconclusive)
O=[N+]([O-])c1cc(CN2CCCC2)ccc1Sc1ccc(Cl)cc1,EC50,[1],9.06 µM (active)
same,IC50,Protein skinhead-1,17.9 µM (active)
same,EC50,[2],232 nM (active)
C[C@@H]1CN([C@@H](C)CO)C(=O)c2cc(C3=CCCC3)cnc2O[C@@H]1CN(C)Cc1ccc(C(=O)O)cc1,AC50,[3],10.9 µM (active)
O=C(Cc1cccc2ccccc12)NC(NC(=S)Nc1ccccc1Cl)C(Cl)(Cl)Cl (stereo unspecified),EC50,[4],15.2 µM (active)
same,EC50,[5],16.7 µM (active)
same,IC50,[6],> 66 µM (inactive)
same,IC50,[7],> 66 µM (inactive)
COC(=O)c1ccc(NC(=O)c2ccc(CN3CCOCC3)cc2)cc1,AC50,[3],43.4 µM (active)
CCC(c1nnnn1CC1CCCO1)N(CCN1CCOCC1)Cc1cc2cc(C)ccc2nc1O (stereo unspecified),AC50,Cytochrome P450 1A2,25.1 µM (inconclusive)
C(=C1c2ccccc2-c2ccccc21)c1ccccn1,IC50,Protein skinhead-1,59.4 µM (inactive)
O=C1[C@@H]2Cc3c([nH]c4ccccc34)[C@@H](c3ccccc3)N2C(=O)[C@@H]2Cc3c([nH]c4ccccc34)[C@@H](c3ccccc3)N12,EC50,[4],9.58 µM (active)
same,EC50,[5],9.96 µM (active)
COc1cccc(Cn2c(=O)c(-c3cn(C)c4ccccc34)nc3cnc(N4CCNCC4)nc32)c1,AC50,Cytochrome P450 2D6,39.8 µM (inconclusive)
same,AC50,Cytochrome P450 1A2,15.8 µM (inconclusive)
same,AC50,Cytochrome P450 3A4,15.8 µM (inconclusive)
O=C(Oc1ccccc1)c1cccc(COC(=O)c2cnccn2)c1,IC50,cells,6.99 µM (active)
CCOC(=O)C1=C(C)N(c2ccc(C)cc2)C(=O)/C1=C\c1ccc(O)c(OC)c1,EC50,[8],> 112 µM (not active)
same,EC50,[9],> 112 µM (not active)
CCc1ccc2nc(O)c(CN(Cc3nnnn3C3CCCC3)C3CCCCC3)cc2c1,EC50,H4,> 120 µM (not active)
same,EC50,[4],18.8 µM (active)
same,EC50,[5],19.7 µM (active)
same,EC50,[10],> 120 µM (not active)
same,EC50,[11],> 120 µM (not active)
OCC/N=C1\CCCc2c1[nH]c1ccc(Br)cc21,AC50,Cytochrome P450 2D6,1 µM (inconclusive)
same,AC50,Cytochrome P450 1A2,0.251 µM (inconclusive)
same,EC50,[12],< 100 nM (active)
same,EC50,[13],48.8 µM (active)
same,AC50,Cytochrome P450 2C9,7.08 µM (inconclusive)
same,EC50,[14],8.41 µM (active)
c1ccc(-c2nc3c4ccccc4ccn3c2CN2CCCCC2)cc1,EC50,[8],> 112 µM (not active)
same,EC50,[9],14.8 µM (active)
COC(=O)[C@H](C)[C@H]1C[C@]1(C)[C@H](NC(=O)OCc1ccccc1)c1ccccc1,AC50,Cytochrome P450 1A2,15.8 µM (inconclusive)
CCCSc1cc(NCCOC(C)=O)c([N+](=O)[O-])c2nonc12,EC50,[8],> 112 µM (not active)
same,EC50,[9],> 112 µM (not active)
Cc1c(C(=O)N2CCCCCC2)nnn1-c1nonc1N,AC50,Cytochrome P450 2D6,17.8 µM (inconclusive)
same,AC50,Cytochrome P450 1A2,15.8 µM (inconclusive)
same,AC50,Cytochrome P450 2C9,14.1 µM (inconclusive)
CSc1cccc(NC(=O)c2cc(S(=O)(=O)N3CCCC3)cn2C)c1,EC50,[8],> 112 µM (not active)
same,EC50,[9],> 112 µM (not active)
CC#CCCCC(=O)Nc1ccc(C(=O)O)cc1,AC50,Cytochrome P450 1A2,28.2 µM (inconclusive)
same,AC50,Cytochrome P450 2C9,39.8 µM (inconclusive)
same,AC50,Cytochrome P450 2C19,inconclusive
CC(=O)NC(CCS(C)(=O)=O)C(=O)Nc1cc(C)on1 (stereo unspecified),EC50,[8],> 112 µM (not active)
same,EC50,[9],> 112 µM (not active)
O=C(Nc1ccc(Cl)cc1)c1cnc(-c2ccccc2)nc1-c1ccccc1,EC50,[4],7.19 µM (active)
same,EC50,[5],6.45 µM (active)
same,AC50,Cytochrome P450 2C19; read-out: AC50,1 µM (inconclusive)
O=C(NCC1CCCO1)c1ccc(NC(=O)c2cccc(Cl)c2)cc1 (stereo unspecified),EC50,[8],> 112 µM (not active)
same,EC50,[9],> 112 µM (not active)
Oc1ccccc1CN1CCCC(N2CCN(c3cccc(C(F)(F)F)c3)CC2)C1 (stereo unspecified),IC50,cells,22.9 µM (active)
CCOC(=O)c1ccc(NC(=O)c2cccc(S(=O)(=O)N3CCOCC3)c2)cc1,EC50,[4],30.4 µM (active)
same,EC50,[5],22 µM (active)
O=C(Nc1ccccc1F)C1CCCC1,IC50,Protein skinhead-1,> 100 µM (inactive)
Clc1ccc2oc(-c3ccccn3)nc2c1,IC50,Protein skinhead-1,35.9 µM (active)
CN(C)C(=O)c1ccc(-c2nc(NCc3cccnc3)c3ccccc3n2)cc1,AC50,Cytochrome P450 2D6,39.8 µM (inconclusive)
same,AC50,Cytochrome P450 1A2,10 µM (inconclusive)
COc1cccc(C(=O)N/N=C/c2c[nH]nc2-c2ccc(OC)cc2OC)c1,EC50,[8],> 112 µM (not active)
same,EC50,[9],> 112 µM (not active)
O=C(CN1CCN(S(=O)(=O)c2ccc(Br)cc2)CC1)Nc1ccc2c(c1)OCO2,IC50,Protein skinhead-1,> 100 µM (inactive)
FC(F)(F)c1cc(-c2ccccc2)nc(NC2CCCC2)n1,IC50,Protein skinhead-1,> 100 µM (inactive)
Cc1ccc(-c2nc(=S)c3c(n2CCN2CCOCC2)CC(C)(C)OC3)cc1,IC50,Protein skinhead-1,> 100 µM (inactive)
SC1=Nc2ccc(Cl)cc2C(c2ccccc2)=NC1,EC50,[15],> 260 µM (inactive)
same,IC50,cells,> 50 µM (active)
COc1ccc2[nH]cc(CCNc3ncnc4ccc(-c5ccccc5CN(C)C)cc34)c2c1,AC50,Cytochrome P450 1A2,31.6 µM (inconclusive)
O=C(CCNC(=O)Cn1cnc2ccccc2c1=O)NCC1COc2ccccc2O1 (stereo unspecified),AC50,Cytochrome P450 1A2,0.01 µM (inconclusive)
